{"source": "BindingDB's records for doi:10.1016/S0960-894X(01)80994-X", "about": "(1993)", "note": "Where a SMILES comes first, the peptide text is derived from it. The star is where a group is joined. Cbz = O=C(OCc1ccccc1)*"}
{"assay": "Inhibition of putative Endothelin-converting enzyme partially purified from rabbit lung membranes", "units": {"IC50": "µM"}}
{"smiles": "COC(=O)[C@H](CC(C)C)NC(=O)[C@@H](CS)NC(=O)OCc1ccccc1", "note": "[(S)-2-((S)-2-Benzyloxycarbonylamino-3-mercapto-propionylamino)-4-methyl-pentanoic acid methyl ester]", "IC50": 4}
{"smiles": "CC(C)CC(C(=O)NO)C(=O)N[C@@H](Cc1c[nH]c2ccccc12)C(=O)O", "note": "(stereo partly drawn) [(S)-2-(2-Hydroxycarbamoyl-4-methyl-pentanoylamino)-3-(1H-indol-3-yl)-propionic acid]", "IC50": 24}
{"smiles": "COC(=O)[C@H](Cc1c[nH]c2ccccc12)NC(=O)[C@H](CS)NC(=O)OCc1ccccc1", "note": "[(S)-2-[2-((R)-Benzyloxycarbonylamino)-3-mercapto-propionylamino]-3-(1H-indol-3-yl)-propionic acid methyl ester] (Cbz-Cys-Trp-OMe)", "IC50": 47}
{"smiles": "COC(=O)[C@H](Cc1c[nH]c2ccccc12)NC(=O)[C@H](CC(C)C)NC(=O)[C@H](CS)NC(=O)OCc1ccccc1", "note": "[2-[(S)-2-((R)-2-Benzyloxycarbonylamino-3-mercapto-propionylamino)-4-methyl-pentanoylamino]-3-(1H-indol-3-yl)-propionic acid (S)-methyl ester] (Cbz-Cys-Leu-Trp-OMe)", "IC50": 31}
{"smiles": "O=C(N[C@@H](CS)C(=O)N[C@@H](Cc1c[nH]c2ccccc12)C(=O)O)OCc1ccccc1", "note": "[(S)-2-((R)-2-Benzyloxycarbonylamino-3-mercapto-propionylamino)-3-(1H-indol-3-yl)-propionic acid] (Cbz-Cys-Trp-OH)", "IC50": 30}
